Experimental findings from PubChem BioAssay AID1421 (Emory University Molecular Libraries Screening Center, 2008) are described below.

Molecules are shown by their SMILES. Activity calls are given as the source filed them. No rule for the calls is given here.

This assay concerns the target Prostaglandin E2 receptor EP2 subtype (Homo sapiens) (UniProt P43116). The experiment in a line: EP2 receptor modulators, dose response, cell-based, human EP2, PGE2 EC50 shift (AID 1421). The following applies: EP2-expressing cells, PGE2 EC50 shift by compound; for PGE2 EC50 with compound: measured here: PGE2 EC50 at 6.7 uM compound.

Chain of Prostaglandin E2 receptor EP2 subtype (Homo sapiens) (P43116 whole entry, looked up): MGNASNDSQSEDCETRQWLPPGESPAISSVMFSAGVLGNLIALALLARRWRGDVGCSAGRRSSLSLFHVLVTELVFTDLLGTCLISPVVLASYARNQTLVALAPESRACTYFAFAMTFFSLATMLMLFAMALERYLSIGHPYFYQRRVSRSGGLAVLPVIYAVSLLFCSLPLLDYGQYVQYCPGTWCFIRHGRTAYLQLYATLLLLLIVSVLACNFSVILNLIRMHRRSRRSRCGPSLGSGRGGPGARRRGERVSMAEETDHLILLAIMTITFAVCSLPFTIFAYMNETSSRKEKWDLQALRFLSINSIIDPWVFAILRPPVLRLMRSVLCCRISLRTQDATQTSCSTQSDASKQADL

As for `CC(C)C1COC(c2cccn2Cc2ccccc2Cl)=N1` (stereo unspecified), the result was active and the PGE2 EC50 with compound stood at 0.95 nM.

Regarding `CCOP(=O)(OCC)c1nc(-c2cccc3ccccc23)oc1NCCc1ccc(OC)cc1`, the PGE2 EC50 with compound was found to be 0.96 nM.

In the case of `O=C(CSc1ncnc2c1oc1ccccc12)Nc1ccccc1C(F)(F)F`, the PGE2 EC50 with compound was 1.17 nM.

In the case of `O=C(Nc1ccccc1N1CCCCC1)c1ccccc1F`, the result was active and the PGE2 EC50 with compound turned out to be 0.61 nM.

Regarding `O=C(c1cc2sccc2n1Cc1ccc(F)cc1)N1CCCc2ccccc21`, the PGE2 EC50 with compound is 1.56 nM.

With `Cc1ccc2cccc(NC(=O)c3ccc(Br)o3)c2n1`, the PGE2 EC50 with compound was 0.83 nM.

`Cc1cccc(Oc2nc(-c3ccccc3)cc(C)c2S(C)(=O)=O)c1C`: the PGE2 EC50 with compound stood at 2.56 nM.

As to `O=C(Nc1nc(-c2cccs2)c(-c2ccccc2)s1)c1ccco1`, the PGE2 EC50 with compound amounted to 2.42 nM.

Turning to `O=c1oc2c3c4c(cc2c(C(F)(F)F)c1CCN1CCOCC1)CCCN4CCC3`, the PGE2 EC50 with compound was found to be 0.83 nM.

Turning to `Cc1cc(OCC(=O)OC(C)C)c2c3c(c(=O)oc2c1)CCCC3`, the PGE2 EC50 with compound turned out to be 0.81 nM.

As for `c1ccc(-c2noc(-c3ccccc3-c3ccccc3)n2)cc1`, the PGE2 EC50 with compound is 0.84 nM.

Turning to `CCCn1c(=O)[nH]c(=O)c2c1nc(-c1ccccc1OC(F)F)n2CCOC`, the PGE2 EC50 with compound was determined as 1.08 nM.

Turning to `Fc1ccc(-c2cc(-c3ccccc3)nc(-n3cccn3)n2)cc1`, the PGE2 EC50 with compound came to 1.63 nM.

As for `Cc1ccc(N=Cc2cc(Cc3ccccc3Cl)cc([N+](=O)[O-])c2O)c(O)c1`, the PGE2 EC50 with compound was found to be 0.6 nM.

Turning to `CCOC(=O)c1oc2ccccc2c1NC(=O)c1ccccc1OC`, the PGE2 EC50 with compound was 1.25 nM.

In the case of `Nc1c(C(=O)NCc2ccccc2)c2nc3ccccc3nc2n1CCCN1CCOCC1`, the PGE2 EC50 with compound worked out at 1.09 nM.

For the molecule `CCOC(=O)c1c(NC(=O)Cc2cccs2)sc(C)c1C`, the PGE2 EC50 with compound turned out to be 0.87 nM.

Consider `COc1ccccc1NC(=O)c1c(C)oc2c1CCCC2`, for which the result was active and the PGE2 EC50 with compound came out at 1.19 nM.

Turning to `CCOc1ccc(C2=Nn3c(nnc3-c3ccccc3OC)SC2)cc1`, the PGE2 EC50 with compound turned out to be 0.91 nM.

For `COc1ccc2c(COC(=O)c3n[nH]c4ccccc34)cc(=O)oc2c1`, the PGE2 EC50 with compound was found to be 1.31 nM.

In the case of `CCC(c1nnnn1C1CCCC1)N(Cc1cccs1)Cc1cc2cc(C)ccc2[nH]c1=O` (stereo unspecified), the PGE2 EC50 with compound turned out to be 0.33 nM.

As for `C[C@]12CCC(=O)C=C1CCC1C2CC[C@@]2(C)C1CC[C@@H]2O` (stereo partly specified), the PGE2 EC50 with compound was 1.55 nM.

As for `CCOC(=O)c1c(-c2ccc(C)o2)csc1NC(=O)CN1CCCCC1`, the PGE2 EC50 with compound was 0.73 nM.

In the case of `CCN=C1S/C(=C\c2ccc(O)c(OCC)c2)C(=O)N1CC`, the PGE2 EC50 with compound was 0.81 nM.

Regarding `CCOP(=O)(c1ccccc1)c1nc(-c2ccccc2C)oc1N1CCCCC1` (stereo unspecified), the PGE2 EC50 with compound came out at 0.69 nM.

Turning to `CCCCCc1ccc(-c2ccc(=O)[nH]n2)cc1`, the result was active and the PGE2 EC50 with compound is 1.44 nM.

Take `S=c1[nH]nc(Cc2ccccc2)n1Cc1ccco1`: the PGE2 EC50 with compound was found to be 2.65 nM.

Regarding `CC(=O)Oc1c2c(c3c(c1CC=C(C)C)O[C@]14C(=C[C@@H]5CC1C(C)(C)OC4(C/C=C(\C)C(=O)O)C5=O)C3=O)OC(C)(CCC=C(C)C)C=C2` (stereo partly specified), the PGE2 EC50 with compound worked out at 0.89 nM.

Take `CCC(=O)N(CC)c1nc(-c2cc(OC)ccc2OC)cs1`: the PGE2 EC50 with compound was 1.09 nM.

With `COC1(C)CC2C(CC1OC(=O)c1cc([N+](=O)[O-])cc([N+](=O)[O-])c1)C2(C)C` (stereo unspecified), the result was active and the PGE2 EC50 with compound was found to be 2.79 nM.

As for `COc1ccccc1C(CC(=O)c1ccccc1)CC(=O)c1ccccc1`, the PGE2 EC50 with compound came out at 2.56 nM.

Regarding `CCOc1ccc(-c2nnc3n2N=C(c2ccc(OC)cc2)CS3)cc1`, the PGE2 EC50 with compound is 0.5 nM.

On to `C=CCc1cc(C=O)cc(OC)c1OCc1ccc(Cl)cc1`, for which the PGE2 EC50 with compound turned out to be 0.57 nM.

For the molecule `Cc1scc(-c2n[nH]c(=S)n2Cc2ccccc2)c1C`, the PGE2 EC50 with compound came to 2.55 nM.

Turning to `CC(C)Cc1nc(SCc2cccnc2)c2c(=O)n(C)c(=O)n(C)c2n1`, the PGE2 EC50 with compound was determined as 0.67 nM.

`O=c1cc(N2CCCCC2)c(-c2ccccc2)nn1Cc1ccc(F)cc1`: the PGE2 EC50 with compound was 2.5 nM.

Take `C=CCn1c(=O)c2c3c(sc2n2c(Nc4ccc(OC)cc4)nnc12)CCCC3`: the PGE2 EC50 with compound was 0.77 nM.

With `C[C@H]1CC[C@@H](C(C)(C)O)CC2=C1CC[C@@H]2C`, the PGE2 EC50 with compound turned out to be 1.06 nM.

Consider `Cc1cc(O)c(C=O)c2c1C(=O)Oc1c(C)c(O)c3c(c1O2)C(O)OC3=O` (stereo unspecified), for which the PGE2 EC50 with compound worked out at 0.76 nM.

In the case of `CC(C)c1nc(N2CCN(C(=O)c3ccccc3)CC2)c(C#N)c2c1COC(C)(C)C2`, the PGE2 EC50 with compound is 0.97 nM.

`NC(=O)CSc1nnc(-c2cccc(S(=O)(=O)N3CCOCC3)c2)n1C1CCCCCC1`: the PGE2 EC50 with compound was determined as 1.37 nM.

As for `Cc1ccccc1CSCC(=O)Nc1ccccc1-c1ccccc1`, the PGE2 EC50 with compound is 1.02 nM.

For `Cc1ccc(-c2cccc(C(=O)NCc3ccccc3)n2)c2ccccc12`, the PGE2 EC50 with compound is 0.32 nM.

`CC1(C)Cc2nc3sc4c(SCC(=O)NC(c5ccccc5)c5ccccc5)ncnc4c3cc2CO1`: the PGE2 EC50 with compound turned out to be 1.48 nM.

As to `Clc1ccccc1C1NCc2ccccc2-n2cccc21` (stereo unspecified), the PGE2 EC50 with compound came out at 0.34 nM.

As to `Cc1cccc(/N=C/c2c(O)ccc3oc4c(c23)CCCC4)n1`, the PGE2 EC50 with compound worked out at 1.04 nM.

With `COc1cc(/C=C2\SC(=S)N(Nc3ncc(C(F)(F)F)cc3Cl)C2=O)ccc1O`, the PGE2 EC50 with compound turned out to be 1.36 nM.

As for `O=C(O)CSc1ccc2ccccc2n1`, the PGE2 EC50 with compound was determined as 2.79 nM.

Turning to `Cc1sc2ncnc(SCc3ccco3)c2c1C`, the PGE2 EC50 with compound was 1.33 nM.

On to `Cc1ccc(C(=O)Nc2ccccc2C(=O)NCc2ccccc2)cc1`, for which the outcome was active and the PGE2 EC50 with compound was 1.42 nM.

As to `Cc1cc(C(=O)NCC(c2ccco2)N(C)C)no1` (stereo unspecified), the PGE2 EC50 with compound is 2.55 nM.

As to `Cc1ccc(-n2nc3c(c2NC(=O)c2ccc(Br)o2)CSC3)c(C)c1`, the PGE2 EC50 with compound was 1.36 nM.

Take `CCCCc1nc(SCCOC)c2c(=O)n(C)c(=O)n(C)c2n1`: the PGE2 EC50 with compound worked out at 1.42 nM.

In the case of `FC(F)(F)c1cc(-c2ccccc2)nc2nc(N3CCOCC3)sc12`, the outcome was active and the PGE2 EC50 with compound turned out to be 1.68 nM.

For `CCOC(=O)C1=C(N)OC2=C(C(=O)CC(C)(C)C2)C1c1ccc(CC)s1` (stereo unspecified), the PGE2 EC50 with compound turned out to be 0.96 nM.

With `CCC1CCc2c(sc3ncnc(N4CCOCC4)c23)C1` (stereo unspecified), the PGE2 EC50 with compound amounted to 0.81 nM.

As for `Cc1ccccc1-n1c(=O)[nH]c(=O)c2c(N)c(C(=O)c3ccc(Cl)cc3)sc21`, the PGE2 EC50 with compound is 0.86 nM.

Consider `COc1cc(/C=C/c2ccc3cccc([N+](=O)[O-])c3n2)ccc1OCC(=O)O`, for which the PGE2 EC50 with compound was 1.64 nM.

With `CCOC(=O)c1c(/N=C/C2C(=O)CCCC2=O)sc2c1CCCC2`, the PGE2 EC50 with compound is 1.32 nM.

Consider `CCCCNc1nc(-c2ccccc2)c(C(=O)OCC)cc1C#N`, for which the PGE2 EC50 with compound is 0.88 nM.

`COc1ccccc1/C=C/C(=O)OCC(=O)Nc1ccccc1Sc1ccccc1`: the PGE2 EC50 with compound turned out to be 0.76 nM.

For `O=C(O)c1ccc(CNCc2cccc(Cl)c2Cl)cc1`, the PGE2 EC50 with compound was determined as 0.88 nM.

`O=c1c2ccccc2nc(N2CCCC2)n1-c1ccc(Cl)cc1`: the PGE2 EC50 with compound was 2.64 nM.

In the case of `Cc1cc(SC(C)C(=O)O)nc2ccccc12` (stereo unspecified), the PGE2 EC50 with compound was 1.18 nM.
